Marks after values point to notes of the source that are not given here.
What was measured:
[1] = test system: adrenaline-induced arrhythmia model in rats; assay: Prophylactic antiarrhythmic activity in adrenaline-induced arrhythmia; assay type: in vivo, rat; details: for Blocks / Bradycardia / Extrasystoles / Mortality: number of animals with event
Description: (§1) The animals were anesthetized with thiopental (75 mg/kg ip). Depending on the model, either adrenaline, aconitine, or calcium chloride was used as an arrhythmogen. Adrenaline and aconitine were administered iv at a dose of 20 µg/kg, whereas calcium chloride was administered at a dose of 140 mg/kg to induce heart rhythm disturbances. The tested compounds were injected iv 15 min before the arrhythmogen. Aspel ASCARD apparatus (standard II lead, with the tape speed 50 mm/s and voltage calibration 1 mV = 1 cm) was used for ECG measurements. […] The ED50 was calculated using the method of Litchfield and Wilcoxon.

[2] = test system: calcium chloride-induced arrhythmia model in rats; assay: Prophylactic antiarrhythmic activity in calcium chloride-induced arrhythmia; assay type: in vivo, rat; details: 5 mg/kg iv 15 min before calcium chloride 140 mg/kg; number of animals with event
Description: as §1

[3] = test system: aconitine-induced arrhythmia model in rats; assay: Prophylactic antiarrhythmic activity in aconitine-induced arrhythmia; assay type: in vivo, rat; details: 5 mg/kg iv 15 min before aconitine 20 μg/kg; number of animals with event
Description: as §1

[4] = test system: pressor response to methoxamine in rats; assay: Influence on blood vasopressor response to methoxamine in rats; assay type: in vivo, rat; details: 2.5 mg/kg iv, methoxamine 150 μg/kg before and 5 min after compound
Description: The experiment was performed to establish the effect of the studied derivatives on the pressor response to methoxamine (150 µg/kg, iv), according to the methods described previously. Normotensive Wistar rats were anesthetized with thiopental (75 mg/kg ip). The right carotid artery was cannulated with a polyethylene tube filled with heparin solution using a Datamax apparatus (Columbus Instruments, Columbus, OH, USA). After a 15-min stabilization period, the pressor response to methoxamine before (control) and 5 min after the administration of the tested compounds was measured (Figure 4B). The tested compounds were administered at the lowest hypotensive dose.

[5] = test system: normotensive rats; assay: Influence on blood pressure in the normotensive rats; assay type: in vivo, rat; details: for DBP—diastolic blood pressure / SBP—systolic blood pressure: mean ± SD
Description: The experiment was performed according to the method described earlier. Normotensive Wistar rats were anesthetized with thiopental (75 mg/kg ip). The right carotid artery was cannulated with a polyethylene tube filled with heparin solution, using a Datamax apparatus (Columbus Instruments, Columbus, OH, USA). After 15 min of the stabilization period, the studied compounds were administered iv, and their effect on systolic and diastolic blood pressure was evaluated (Figure 4A).

[6] = biological target: α1-adrenergic receptors; assay: α1-adrenoceptor radioligand binding assay ([3H]-prazosin, rat cortex); details: rat cortex tissue, mean ± SEM
Description: The α1- and α2-adrenoceptor radioligand binding assays were performed on the rat cerebral cortex using previously described methods. […] The brains were homogenized using the ULTRA-TURRAX homogenizer in 10 mL of an ice-cold 50 mM Tris-HCl buffer (pH 7.6). The homogenates were centrifuged at 20,000× g for 20 min (0–4 °C). Subsequently, the cell pellet was resuspended in the Tris–HCl buffer and centrifuged again. Radioligand binding assays were carried out in plates (MultiScreen/Millipore). The final incubation mixture, with a volume of 300 μL, consisted of 240 μL of the tissue suspension, 30 μL of the radioligand solution, and 30 μL of the buffer containing 7–8 concentrations of the studied compounds. In order to measure the unspecific binding, 10 μM phentolamine (for [^3H]-prazosin) or 10 μM clonidine (for [^3H]-clonidine) were utilized. The incubation was completed by rapid filtration through Whatman GF/C filters using a vacuum manifold (Millipore). The filters were then washed twice with the assay buffer and placed in scintillation vials with a liquid scintillation cocktail. Radioactivity was measured in a WALLAC 1409 DSA liquid scintillation counter (Perkin Elmer, USA). All the assays were performed in duplicates, and the inhibitory constants (Ki) were calculated.

[7] = test system: adrenaline-induced arrhythmia model in rats; assay: Therapeutic antiarrhythmic activity in adrenaline-induced arrhythmia; details: 1 mg/kg iv immediately after adrenaline 20 µg/kg; number of animals with event
Description: The experiments were carried out according to the method described by Szekeres and Papp [71]. The heart rhythm disturbances, such as extrasystoles, conduction blocks, and bradycardia, were induced by iv injection of adrenaline (20 µg/kg) to anesthetized rats (thiopental, 75 mg/kg, ip). […] The Aspel ASCARD apparatus (standard II lead, with a tape of speed 50 mm/s and voltage calibration of 1 mV = 1 cm) was used for the ECG measurements. The ECG was recorded during the first 2 min and in the 5th, 10th, and 15th min after the adrenaline injection (Figure 3B). The lack or decreased amount of extrasystoles, atrioventricular blocks, and bradycardia in the ECG recordings compared to the control group was the criterion of antiarrhythmic activity [72].
Automated ECG waveform analysis was evaluated as described earlier [55], using Eleven Maze software version 0.1 from Eleven Products Sp. z o.o. […] The software, under expert supervision, recognized and classified the heart rhythm irregularities. It also calculated PQ, QRS, QTc, and rate parameters.

[8] = 0.1 mg/kg iv 15 min before adrenaline 20 μg/kg
[9] = 0.25 mg/kg iv 15 min before adrenaline 20 μg/kg
[10] = 0.5 mg/kg iv 15 min before adrenaline 20 μg/kg
[11] = 1.0 mg/kg iv, 0 min (before administration)
[12] = 2.5 mg/kg iv, 0 min (before administration)

COc1ccccc1N1CCN(Cc2cccc(COc3ccccc3C(N)=O)c2)CC1.Cl [JJGW11, 2-[(3-{[4-(2-metoxyphenyl)piperazin-1-ylo]methyl}phenyl)metoxy}benzamide hydrochloride]
Blocks [1, 8]: 4/5
Bradycardia [1, 8]: 2/5
Extrasystoles [1, 8]: 4/5
Mortality [1, 8]: 1/5
Blocks [1, 9]: 6/6
Bradycardia [1, 9]: 0/6
Extrasystoles [1, 9]: 6/6
Mortality [1, 9]: 0/6
Blocks [1, 10]: 1/6
Bradycardia [1, 10]: 2/6
Extrasystoles [1, 10]: 3/6
Mortality [1, 10]: 1/6
ED50 ([1]; prophylactic, iv 15 min before adrenaline 20 μg/kg, confidence limits in brackets (Litchfield and Wilcoxon)): 0.19 (0.08–0.45) mg/kg
Blocks [2]: 6/6
Bradycardia [2]: 6/6
Extrasystoles [2]: 5/6
Fibrillations [2]: 6/6
Mortality [2]: 6/6
Blocks [3]: 6/6
Bradycardia [3]: 6/6
Extrasystoles [3]: 5/6
Fibrillations [3]: 4/6
Mortality [3]: 6/6
attenuation of the methoxamine pressor response [4]: 99%
DBP—diastolic blood pressure [5, 11]: 86.8 ± 7.6 mmHg
SBP—systolic blood pressure [5, 11]: 118.2 ± 9.7 mmHg
DBP—diastolic blood pressure ([5]; 1.0 mg/kg iv, 5 min): 81.3 ± 14.4 mmHg
SBP—systolic blood pressure ([5]; 1.0 mg/kg iv, 5 min): 116.2 ± 8.5 mmHg
DBP—diastolic blood pressure ([5]; 1.0 mg/kg iv, 10 min): 82.0 ± 10.2 mmHg
SBP—systolic blood pressure ([5]; 1.0 mg/kg iv, 10 min): 113.8 ± 9.2 mmHg
DBP—diastolic blood pressure ([5]; 1.0 mg/kg iv, 20 min): 82.3 ± 8.8 mmHg
SBP—systolic blood pressure ([5]; 1.0 mg/kg iv, 20 min): 111.5 ± 10.4 mmHg
DBP—diastolic blood pressure ([5]; 1.0 mg/kg iv, 30 min): 83.0 ± 8.2 mmHg
SBP—systolic blood pressure ([5]; 1.0 mg/kg iv, 30 min): 111.0 ± 10.8 mmHg
DBP—diastolic blood pressure ([5]; 1.0 mg/kg iv, 40 min): 82.5 ± 8.4 mmHg
SBP—systolic blood pressure ([5]; 1.0 mg/kg iv, 40 min): 110.0 ± 11.5 mmHg
DBP—diastolic blood pressure ([5]; 1.0 mg/kg iv, 50 min): 81.7 ± 8.3 mmHg
SBP—systolic blood pressure ([5]; 1.0 mg/kg iv, 50 min): 110.3 ± 10.7 mmHg
DBP—diastolic blood pressure ([5]; 1.0 mg/kg iv, 60 min): 81.5 ± 8.4 mmHg
SBP—systolic blood pressure ([5]; 1.0 mg/kg iv, 60 min): 110.8 ± 10.6 mmHg
DBP—diastolic blood pressure [5, 12]: 88.7 ± 10.4 mmHg
SBP—systolic blood pressure [5, 12]: 116.7 ± 8.1 mmHg
decrease of the diastolic blood pressure ([5]; 2.5 mg/kg iv, 60th min after administration): 18%
DBP—diastolic blood pressure ([5]; 2.5 mg/kg iv, 5 min): 84.7 ± 10.0 mmHg
SBP—systolic blood pressure ([5]; 2.5 mg/kg iv, 5 min): 108.5 ± 8.7 ^b mmHg
DBP—diastolic blood pressure ([5]; 2.5 mg/kg iv, 10 min): 81.2 ± 8.6 mmHg
SBP—systolic blood pressure ([5]; 2.5 mg/kg iv, 10 min): 103.3 ± 9.5^c mmHg
DBP—diastolic blood pressure ([5]; 2.5 mg/kg iv, 20 min): 78.5 ± 10.1 mmHg
SBP—systolic blood pressure ([5]; 2.5 mg/kg iv, 20 min): 102.3 ± 10.0 ^c mmHg
DBP—diastolic blood pressure ([5]; 2.5 mg/kg iv, 30 min): 77.3 ± 9.9 mmHg
SBP—systolic blood pressure ([5]; 2.5 mg/kg iv, 30 min): 101.3 ± 9.2 ^b mmHg
DBP—diastolic blood pressure ([5]; 2.5 mg/kg iv, 40 min): 79.2 ± 10.5 mmHg
SBP—systolic blood pressure ([5]; 2.5 mg/kg iv, 40 min): 103.0 ± 10.3 ^a mmHg
DBP—diastolic blood pressure ([5]; 2.5 mg/kg iv, 50 min): 77.7 ± 12.9 mmHg
SBP—systolic blood pressure ([5]; 2.5 mg/kg iv, 50 min): 103.5 ± 12.9 ^b mmHg
DBP—diastolic blood pressure ([5]; 2.5 mg/kg iv, 60 min): 73.0 ± 16.2 ^a mmHg
SBP—systolic blood pressure ([5]; 2.5 mg/kg iv, 60 min): 100.2 ± 15.9 ^b mmHg
decrease of the systolic blood pressure ([5]; 2.5 mg/kg iv, between the 5th and 60th min after injection): 7–14%
Adrenergic Receptors—pKi α1 [6]: 8.07 ± 0.04
Blocks [7]: 2/5
Bradycardia [7]: 1/5
Mortality [7]: 0/5
